The source of these data is paper PMC3722118, “Hellebrin and its aglycone form hellebrigenin display similar in vitro growth inhibitory effects in cancer cells and binding profiles to the alpha subunits of the Na^+/K^+-ATPase” (Molecular Cancer, 2013).

Assay [1] has as its system MCF-7 breast cancer cells. As to the kind of experiment: MTT colorimetric in vitro growth inhibition assay. Format: cell-based, human. The following applies: read-out: IC50 (nM) MCF-7. The source says: (§1) The histological types and origins of the eight human cancer cell lines that were used for the MTT colorimetric assay are detailed in the legend of Table 1. Two mouse cancer cell lines were also used, the CT26.WT colon cancer cell line (ATCC code CRL-2638) and the B16F10 melanoma cell line (ATCC code CRL-6475). Both cell lines were obtained from the American Type Culture Collection (ATCC, Manassas, VA). A control cell line (human NHDF fibroblasts) was obtained from PromoCell (code c-12300; Heidelberg, Germany). The cell lines detailed in Figure 2A are a generous gift from the National Cancer Institute (NCI, Bethesda, USA) to Steven Karlish’s lab.
(§2) The cancer cells were cultured in RPMI (Lonza, Verviers, Belgium) medium supplemented with 10% heat-inactivated fetal calf serum (Lonza). All culture media were supplemented with 4 mM glutamine, 100 μg/mL gentamicin, 200 U/mL penicillin and 200 μg/mL streptomycin (Lonza). The NHDF fibroblasts were cultured in Lonza medium cc3132 KT FGM-2 BulletKit.
(§3) The overall growth level of the human cancer cell lines was determined using a colorimetric MTT (3-(4,5-dimethylthiazol-2yl)-2,5-diphenyltetrazolium bromide, Sigma, Belgium) assay as detailed previously. Briefly, this test measures the number of metabolically active (thus living) cells that are able to transform the yellow MTT into the blue formazan dye via a mitochondrial reduction involving succinate dehydrogenase. The amount of formazan obtained at the end of the experiment (measured by spectrophotometry) is directly proportional to the number of living cells. The determination of the optical density in the control compared to the treated cells therefore enables quantitative measurements of the effects of compounds on the growth of normal as well as cancer cells in vitro.
(§4) Each experimental condition was performed in six replicates.

Assay [2] has as its system PC-3 prostate cancer cells. Nature of the assay: MTT colorimetric in vitro growth inhibition assay. It is filed as cell-based, human. The conditions noted are these: read-out: IC50 (nM) PC-3.
Excerpt: as §1, §2, §3, §4

Another assay concerns A549 NSCLC cells. Nature of the assay: MTT colorimetric in vitro growth inhibition assay. Format: cell-based, human. The conditions noted are these: read-out: IC50 (nM) A549.
Excerpt: as §1, §2, §3, §4

The subject of a further assay is SKMEL-28 melanoma cells. As to the kind of experiment: MTT colorimetric in vitro growth inhibition assay. The following applies: read-out: IC50 (nM) SKMEL-28. It is filed as cell-based, human.
Excerpt: as §1, §2, §3, §4

Assay [3] relates to HT-29 colon cancer cells. Nature of the assay: MTT colorimetric in vitro growth inhibition assay. The conditions noted are these: read-out: IC50 (nM) HT-29. It is filed as cell-based, human.
Excerpt: as §1, §2, §3, §4

The test system of another assay is U373 glioma cells. Nature of the assay: MTT colorimetric in vitro growth inhibition assay. Format: cell-based, human. The conditions noted are these: read-out: IC50 (nM) U373.
Excerpt: as §1, §2, §3, §4

A further assay deals with Hs683 glioma cells. As to the kind of experiment: MTT colorimetric in vitro growth inhibition assay. The following applies: read-out: IC50 (nM) Hs683. It is filed as cell-based, human.
Excerpt: as §1, §2, §3, §4

The next assay has as its system T98G glioma cells. Nature of the assay: MTT colorimetric in vitro growth inhibition assay. The conditions noted are these: read-out: IC50 (nM) T98G. It is filed as cell-based, human.
Excerpt: as §1, §2, §3, §4

The next assay concerns the target T1, human α3β1 NaK complex (Homo sapiens, UniProt P13637).
T1 construct: made in house; host or cells: Pichia pastoris strain SMD1165 (membranes)
The conditions noted are these: ref Katz et al. [5], cited from earlier work; for Kd: 3H-ouabain displacement, read-out: Affinity (nM) α-3 (KD ± SEM); for Selectivity α-1 / α-3: ratio of KD α-1 to KD α-3.

Assay [4] has as its system human cancer cells (A549, U373, Hs683, T98G, MCF-7, SKMEL-28, PC-3, HT-29). Nature of the assay: MTT growth inhibition, mean over the eight human cancer cell lines. The conditions noted are these: 72 h, read-out: IC50 (nM) Mean ± SEM. Format: cell-based.
Excerpt: as §1, §2, §3, §4

For another assay, the target named is T2, human α2β1 NaK complex (Homo sapiens, UniProt P50993).
T2 construct: made in house; host or cells: Pichia pastoris strain SMD1165 (membranes)
The conditions noted are these: ref Katz et al. [5], cited from earlier work; for Kd: 3H-ouabain displacement, read-out: Affinity (nM) α-2 (KD ± SEM); for Selectivity α-1 / α-2: ratio of KD α-1 to KD α-2.

A further assay has as its target T3, human α1β1 NaK complex (Homo sapiens, UniProt P05023).
T3 construct: made in house; host or cells: Pichia pastoris strain SMD1165 (membranes)
The conditions noted are these: 3H-ouabain displacement; ref Katz et al. [5]; read-out: Affinity (nM) α-1 (KD ± SEM); cited from earlier work.

Assay [5] relates to HT-29 colon cancer cells. As to the kind of experiment: O2 consumption rate (MitoXpress assay). It is filed as cell-based, human. The conditions noted are these: compounds at their IC50 (MTT), 24 h. On the procedure:
For enzymatic determination of lactate production, confluent tumor cells were incubated with 10 mM glucose for 24 hours. Culture medium was then filtered through centrifugation columns with a 10 KDa cutoff, and L-lactate concentrations were determined on an ISCUSflex analyzer (CMA Microdialysis AB, Solna, Sweden). O2 consumption was determined using the MitoXpress assay according to the manufacturer’s instructions (LuxCell Biosciences, Cork, Ireland). Briefly, after adding the oxygen probe to tumor cells cultured for 24 hours in 96-well microplates with or without the tested compounds, the wells were sealed with mineral oil, and respiration was evaluated using time-resolved fluorescent plate readers. Under these conditions, O2 depletion was translated into an increase in probe phosphorescence signal, and the slope of this signal was used to derive the O2 consumption rate.
Figure 6 Metabolic profiling of human HT29 colon cancer cells treated with cardiotonic steroids. A: Extracellular lactate concentrations and B: O2 consumption rates in HT29 cancer cells treated with the indicated compounds at their IC50in vitro growth inhibitory concentrations (see Table 1). The data (mean ± SEM from triplicates) are expressed in mM lactate accumulated in the extracellular medium after 24 hours and arbitrary units derived from time-resolved fluorescent signal.min^-1.

Setting [6] is: Homo sapiens, MCF7, 72 h, three days of culture, * three independent experiments, ** one experiment, six replicates.
[7] abbreviates: Homo sapiens, 72 h, three days of culture, * three independent experiments, ** one experiment, six replicates.
The mark [8] stands for this setting: Homo sapiens, A549, 72 h, three days of culture, * three independent experiments, ** one experiment, six replicates.
Where [9] appears, read: Homo sapiens, SK-MEL-28, 72 h, three days of culture, * three independent experiments, ** one experiment, six replicates.
Setting [10] is: Homo sapiens, HT-29, 72 h, three days of culture, * three independent experiments, ** one experiment, six replicates.
[11] abbreviates: Homo sapiens, U373 MG, 72 h, three days of culture, * three independent experiments, ** one experiment, six replicates.
The mark [12] stands for this setting: Homo sapiens, Hs 683, 72 h, three days of culture, * three independent experiments, ** one experiment, six replicates.
Where [13] appears, read: Homo sapiens, T98G, 72 h, three days of culture, * three independent experiments, ** one experiment, six replicates.
Where [14] appears, read: mean over eight human cancer cell lines, three days of culture.
Where [15] appears, read: three days of culture, * three independent experiments, ** one experiment, six replicates.

Molecules are shown by their SMILES. Like-named read-outs stand apart in the source and are kept apart here.

As a reminder, the IC50 is the concentration that gives 50% inhibition. As usually defined, the Kd is the free concentration of one partner at which half of the binding sites on the other are occupied at equilibrium, for simple one-to-one binding. As for `C[C@@H]1O[C@@H](O[C@H]2CC[C@@]3(C)[C@@H](CC[C@@H]4[C@@H]3CC[C@]3(C)[C@@H](C5=CC(=O)OC5)CC[C@]43O)C2)[C@H](O)[C@H](O)[C@H]1O` [Uzarigenin-rhamnoside], the half-maximal inhibitory concentration (IC50) in [1] (setting [6]) is 469 nM; in [2] (setting [7]), 77 nM; in the assay with A549 NSCLC cells (setting [8]) it was 45 nM; in the assay on SKMEL-28 melanoma cells (setting [9]) it was 222 nM; in the assay with HT-29 colon cancer cells [3] (setting [10]), 41 nM; in the assay with U373 glioma cells (setting [11]), 247 nM. Further, the IC50 turned out to be 38 nM in the assay on Hs683 glioma cells (setting [12]), 38 nM in the assay on T98G glioma cells (setting [13]) and 147 ± 55 nM in [4] (setting [14]). For the same compound, the Kd is 122 ± 9 nM at human α3β1 NaK complex, 96 ± 7 nM on human α2β1 NaK complex and 90 ± 20 nM at human α1β1 NaK complex. Besides, the “Selectivity α-1 / α-3” value at human α3β1 NaK complex is listed as 0.7. The “Selectivity α-1 / α-2” value at human α2β1 NaK complex was 0.9.
Regarding `C[C@H]1O[C@@H](O[C@H]2[C@@H](O)C[C@H](O[C@H]3[C@@H](O)C[C@H](O[C@H]4CC[C@@]5(C)[C@H](CC[C@@H]6[C@@H]5C[C@@H](O)[C@]5(C)[C@@H](C7=CC(=O)OC7)CC[C@]65O)C4)O[C@@H]3C)O[C@@H]2C)C[C@H](O)[C@@H]1O` [Digoxin, digoxin], the 50% inhibitory concentration (IC50) in assay [1] (setting [6]) turned out to be 363 ± 35 nM; in assay [2] (setting [7]) it was 215 ± 71 nM; with A549 NSCLC cells (setting [8]), 60 ± 7 nM; in the assay with SKMEL-28 melanoma cells (setting [9]), 220 ± 26 nM; in the assay on HT-29 colon cancer cells [3] (setting [10]), 208 ± 20 nM; in the assay with U373 glioma cells (setting [11]) it was 227 ± 42 nM. Further, the IC50 with Hs683 glioma cells (setting [12]) was found to be 51 ± 6 nM; in the assay on T98G glioma cells (setting [13]), 274 ± 17 nM; in assay [4] (setting [14]) it was 202 ± 37 nM. In the assay with HT-29 colon cancer cells [5], the “O2 consumption rate (cell respiration)” value was “significantly reduced”.
`C[C@]12CC[C@H](O)C[C@@H]1CC[C@@H]1[C@@H]2CC[C@]2(C)[C@@H](C3=CC(=O)OC3)CC[C@]12O` [Uzarigenin]: the half-inhibitory concentration (IC50) is above 10000 nM in assay [1] (setting [15]); 6280 nM in [2] (setting [15]); 3170 nM in the assay with A549 NSCLC cells (setting [15]); above 10000 nM in the assay with SKMEL-28 melanoma cells (setting [15]); 6440 nM in the assay on HT-29 colon cancer cells [3] (setting [15]); 7920 nM with U373 glioma cells (setting [15]). Besides, the half-inhibitory concentration (IC50) in the assay on Hs683 glioma cells (setting [15]) was determined as 2250 nM; in the assay with T98G glioma cells (setting [15]), 5140 nM. The Kd is 1280 nM at human α3β1 NaK complex, 883 ± 56 nM at human α2β1 NaK complex and 1100 nM at human α1β1 NaK complex. At human α3β1 NaK complex, the “Selectivity α-1 / α-3” value is given as 0.9. For the same compound, on human α2β1 NaK complex, the “Selectivity α-1 / α-2” value was 1.3.
As for `C[C@]12CC[C@H](O)C[C@H]1CC[C@@H]1[C@@H]2CC[C@]2(C)[C@@H](C3=CC(=O)OC3)[C@@H](O)C[C@]12O` [Gitoxigenin, gitoxigenin], the IC50 in [1] (setting [6]) is 5190 nM; in [2] (setting [7]) it was 3960 nM; in the assay on A549 NSCLC cells (setting [8]), 1720 nM; with SKMEL-28 melanoma cells (setting [9]), above 10000 nM; in the assay on HT-29 colon cancer cells [3] (setting [10]), 4400 nM; in the assay on U373 glioma cells (setting [11]), 4480 nM. The values for the IC50 (in the assay on Hs683 glioma cells (setting [12]); in the assay with T98G glioma cells (setting [13]); in assay [4] (setting [14])) were 653 nM, 3590 nM and above 4250 nM, respectively. Moreover, the Kd was 1050 nM at human α3β1 NaK complex, 1180 nM at human α2β1 NaK complex and 500 ± 90 nM on human α1β1 NaK complex. Moreover, on human α3β1 NaK complex, the “Selectivity α-1 / α-3” value is 0.5. For the same compound, the “Selectivity α-1 / α-2” value at human α2β1 NaK complex is 0.4.
For `C[C@H]1O[C@@H](O[C@H]2[C@@H](O)C[C@H](O[C@H]3[C@@H](O)C[C@H](O[C@H]4CC[C@@]5(C)[C@H](CC[C@@H]6[C@@H]5CC[C@]5(C)[C@@H](C7=CC(=O)OC7)[C@@H](O)C[C@]65O)C4)O[C@@H]3C)O[C@@H]2C)C[C@H](O)[C@@H]1O` [Gitoxin], the IC50 in assay [1] (Homo sapiens, MCF7, 72 h) amounted to 828 nM; in assay [2] (Homo sapiens, 72 h), 361 nM; with A549 NSCLC cells (Homo sapiens, A549, 72 h), 68 nM; in the assay on SKMEL-28 melanoma cells (Homo sapiens, SK-MEL-28, 72 h), 679 nM; in the assay with HT-29 colon cancer cells [3] (Homo sapiens, HT-29, 72 h), 352 nM; in the assay with U373 glioma cells (Homo sapiens, U373 MG, 72 h), 351 nM. For the same compound, the IC50 in the assay with Hs683 glioma cells (Homo sapiens, Hs 683, 72 h) amounted to 79 nM; in the assay with T98G glioma cells (Homo sapiens, T98G, 72 h), 174 nM; in assay [4] (Homo sapiens) it was 362 ± 96 nM. The Kd at human α3β1 NaK complex was 108 ± 17 nM; on human α2β1 NaK complex, 85 ± 3 nM; at human α1β1 NaK complex it was 123 ± 8 nM. Further, the “Selectivity α-1 / α-3” value at human α3β1 NaK complex is on record as 1.1. The “Selectivity α-1 / α-2” value on human α2β1 NaK complex is on record as 1.5.
